Test results from patent US8796457B2, “Compound useful for the treatment of degenerative and inflammatory diseases” (Galapagos NV, priority 2009, dated 2014).

How the values were obtained:
[1] = target: Recombinant human JAK3 catalytic domain (Homo sapiens (Human), UniProt P52333); test: JAK3 inhibition assay; assay type: biochemical; settings: average ± standard error of the mean; 1 μM ATP
Description: Recombinant human JAK3 catalytic domain (amino acids 781-1124; catalog number PV3855) was purchased from Invitrogen. 0.025 mU of JAK3 was incubated with 2.5 μg polyGT substrate (Sigma catalog number P0275) in kinase reaction buffer (25 mM Tris pH 7.5, 0.5 mM EGTA, 0.5 mM Na3VO4, 5 mM b-glycerolphosphate, 0.01% Triton X-100, 1 μM non-radioactive ATP, 0.25 μCi ^33P-gamma-ATP (GE Healthcare, catalog number AH9968) final concentrations) with or without 5 μL containing test compound or vehicle (DMSO, 1% final concentration), in a total volume of 25 μL, in a polypropylene 96-well plate (Greiner, V-bottom). After 105 min at 30° C., reactions were stopped by adding of 25 μL/well of 150 mM phosphoric acid. […] 40 μL/well of Microscint-20 was added, the top of the plates was sealed and readout was performed using the Topcount (Perkin Elmer). Kinase activity was calculated by subtracting counts per minute (cpm) obtained in the presence of a positive control inhibitor (10 μM staurosporine) from cpm obtained in the presence of vehicle. The ability of a test compound to inhibit this activity was determined as: Percentage inhibition=((cpm determined for sample with test compound present−cpm determined for sample with positive control inhibitor) divided by (cpm determined in the presence of vehicle−cpm determined for sample with positive control inhibitor))*100. […]

[2] = target: Recombinant human TYK2 catalytic domain (Homo sapiens (Human), UniProt P29597); test: TYK2 inhibition assay; assay type: biochemical; settings: 0.1 μM ATP
Sequence of Recombinant human TYK2 catalytic domain (P29597 871-1187): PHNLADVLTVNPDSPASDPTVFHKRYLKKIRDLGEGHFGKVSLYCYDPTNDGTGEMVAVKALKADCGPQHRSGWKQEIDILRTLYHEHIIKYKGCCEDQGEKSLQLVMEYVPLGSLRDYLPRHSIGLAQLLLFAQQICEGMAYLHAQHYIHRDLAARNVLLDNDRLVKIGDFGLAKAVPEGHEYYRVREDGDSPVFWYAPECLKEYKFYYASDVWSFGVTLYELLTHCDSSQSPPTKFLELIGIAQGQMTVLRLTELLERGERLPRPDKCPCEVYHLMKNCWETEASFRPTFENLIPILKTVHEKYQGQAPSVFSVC
Description: Recombinant human TYK2 catalytic domain (amino acids 871-1187; catalog number 08-147) was purchased from Carna biosciences. 5 ng of TYK2 was incubated with 12.5 μg polyGT substrate (Sigma catalog number P0275) in kinase reaction buffer (25 mM Hepes pH 7.5, 100 mM NaCl, 0.2 mM Na3VO4, 0.1% NP-40, 0.1 μM non-radioactive ATP, 0.125 μCi ^33P-gamma-ATP (GE Healthcare, catalog number AH9968) final concentrations) with or without 5 μL containing test compound or vehicle (DMSO, 1% final concentration), in a total volume of 25 μL, in a polypropylene 96-well plate (Greiner, V-bottom). After 90 min at 30° C., reactions were stopped by adding of 25 μL/well of 150 mM phosphoric acid. […] 40 μL/well of Microscint-20 was added, the top of the plates was sealed and readout was performed using the Topcount (Perkin Elmer). Kinase activity was calculated by subtracting counts per minute (cpm) obtained in the presence of a positive control inhibitor (10 μM staurosporine) from cpm obtained in the presence of vehicle. The ability of a test compound to inhibit this activity was determined as: Percentage inhibition=((cpm determined for sample with test compound present−cpm determined for sample with positive control inhibitor) divided by (cpm determined in the presence of vehicle−cpm determined for sample with positive control inhibitor))*100. […]

[3] = tested on: MMP13 levels in SW1353 cells; test: OSM/IL-1β signaling assay (MMP13); assay type: cell-based; settings: Homo sapiens, 25 ng/mL OSM and 1 ng/mL IL-1β, 48 hours, average ± standard error of the mean
From the text: 5% CO2. […] The data are expressed as the average EC50 from the assays±standard error of the mean.

[4] = tested on: JAK1-dependent pathway (IL-6 stimulated STAT1 phosphorylation, CD4+ cells) in human whole blood; test: Whole blood assay, IL-6 stimulation, Phospho-STAT1 FACS; assay type: cell-based
Description: A flow cytometry analysis was also performed to establish compound selectivity for JAK1 over JAK2, ex vivo using human whole blood.
Remaining diluted Lyse/Fix buffer was discarded.
The stock solution was stored aliquoted at −80° C.
Control-treated samples received DMSO instead of compound.
Human blood was collected in heparinized tubes.

Sequence of Recombinant human JAK3 catalytic domain (P52333 781-1124): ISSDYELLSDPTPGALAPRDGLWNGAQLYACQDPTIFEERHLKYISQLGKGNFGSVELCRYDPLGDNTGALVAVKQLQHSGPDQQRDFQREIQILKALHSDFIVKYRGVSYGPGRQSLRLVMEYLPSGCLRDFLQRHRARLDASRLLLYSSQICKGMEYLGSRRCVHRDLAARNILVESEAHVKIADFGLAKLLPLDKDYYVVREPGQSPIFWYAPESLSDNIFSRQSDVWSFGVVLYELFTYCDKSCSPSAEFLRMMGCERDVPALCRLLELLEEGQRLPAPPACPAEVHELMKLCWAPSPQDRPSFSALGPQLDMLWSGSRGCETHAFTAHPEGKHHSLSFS

Structure (SMILES): CC1(C)CN(C(=O)c2ccc(-c3cccc4nc(NC(=O)C5CC5)nn34)cc2)C1 [Compound 1, Cyclopropanecarboxylic acid{5-[4-(3,3-dimethyl-azetidine-1-carbonyl)-phenyl]-[1,2,4]triazolo[1,5-a]pyridin-2-yl}-amide]
- IC50 [1]: 408 ± 62 nM
- IC50 [2]: 219 ± 37 nM
- EC50 [3]: 4200 ± 2370 nM
- IC50 ([4]; Homo sapiens, IL-6 stimulation, FACS, CD4+ cells, mean of 3 healthy volunteers, read-out: pIC50 in the inhibition of STAT1 phosphorylation (converted)): 245 nM
- selectivity for JAK1 vs. JAK2 (STAT1 vs STAT5) ([4]; IL-6 pSTAT1 vs GM-CSF pSTAT5, human whole blood FACS): 17.6 fold
